Data reported in US9580390B2, “Indazole compounds as kinase inhibitors and method of treating cancer with same” (University Health Network, priority 2011, dated 2017).
Like-named read-outs stand apart in the source and are kept apart here.

Tests used:
human TTK = molecular target: T1, human TTK (Homo sapiens, UniProt P33981); assay: TTK inhibition assay (indirect ELISA); type: biochemical; details: read-out: TTK IC50 Range
T1 construct: amino terminal GST fusion of full length human TTK; purchased Invitrogen
T1 sequence (P33981 1-857): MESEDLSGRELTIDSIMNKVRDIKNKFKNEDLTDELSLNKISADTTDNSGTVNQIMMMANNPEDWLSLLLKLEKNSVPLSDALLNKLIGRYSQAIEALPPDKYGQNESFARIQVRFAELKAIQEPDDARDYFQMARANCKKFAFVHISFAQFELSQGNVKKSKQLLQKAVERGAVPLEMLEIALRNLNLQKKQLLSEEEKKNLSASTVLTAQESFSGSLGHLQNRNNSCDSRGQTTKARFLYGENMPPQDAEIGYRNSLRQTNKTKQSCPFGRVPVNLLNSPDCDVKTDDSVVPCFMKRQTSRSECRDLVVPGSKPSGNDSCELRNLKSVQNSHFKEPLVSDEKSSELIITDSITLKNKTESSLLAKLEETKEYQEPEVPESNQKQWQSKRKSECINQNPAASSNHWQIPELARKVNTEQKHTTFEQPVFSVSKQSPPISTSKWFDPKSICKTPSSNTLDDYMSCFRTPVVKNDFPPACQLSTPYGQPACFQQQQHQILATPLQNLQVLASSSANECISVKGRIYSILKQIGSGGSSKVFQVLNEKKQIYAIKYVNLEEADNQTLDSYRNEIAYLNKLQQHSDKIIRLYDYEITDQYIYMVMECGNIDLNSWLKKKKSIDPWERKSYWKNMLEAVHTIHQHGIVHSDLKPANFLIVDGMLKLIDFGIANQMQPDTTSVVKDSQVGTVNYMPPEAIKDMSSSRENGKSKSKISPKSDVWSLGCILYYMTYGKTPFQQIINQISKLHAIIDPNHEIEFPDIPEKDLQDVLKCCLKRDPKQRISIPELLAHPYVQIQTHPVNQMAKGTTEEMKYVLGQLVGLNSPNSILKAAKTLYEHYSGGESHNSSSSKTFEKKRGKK

[1] = test system: colon cancer cells (HCT116); assay: Cancer cell line growth inhibition (SRB assay); type: cell-based; details: Homo sapiens, HCT-116, read-out: Cancer Cell Line GI50 Range HCT116
[2] = test system: ovarian cancer cells (PA-1); assay: Cancer cell line growth inhibition (SRB assay); type: cell-based; details: read-out: Cancer Cell Line GI50 Range PA-1
[3] = HCT116 colon cancer cells, SRB assay
[4] = PA-1 ovarian cancer cells, SRB assay

Structure (SMILES)	IC50 (human TTK) [nM]	GI50 [1, 3] [nM]	GI50 [2, 4] [nM]	GI50 [1] [nM]	GI50 ([2]; Homo sapiens, PA-1) [nM]
O=C(Nc1ccc2[nH]nc(-c3ccc(NC4CCC(O)CC4)cc3)c2c1)C(c1ccsc1)N1CCCC1 (single isomer, unassigned) [Example A105, rel-N-(3-(4-(((1r,4r)-4-hydroxycyclohexyl)amino)phenyl)-1H-indazol-5-yl)-2-(pyrrolidin-1-yl)-2-(thiophen-3-yl)acetamide]	< 100	< 100	< 100		
O=C(NC(c1ccccc1)C1CC1)c1ccc2[nH]nc(-c3cccc(N4CCOCC4)c3)c2c1 (stereo not drawn) [Example A61, N-(cyclopropyl(phenyl)methyl)-3-(3-morpholinophenyl)-1H-indazole-5-carboxamide]	100 to 500	> 500			
Cc1cc(-c2n[nH]c3ccc(C(=O)NC(c4ccccc4)C4CC4)cc23)ccc1N1CCOCC1 (stereo not drawn) [Example A64, N-(cyclopropyl(phenyl)methyl)-3-(3-methyl-4-morpholinophenyl)-1H-indazole-5-carboxamide]	100 to 500	> 500			
O=C(NC(c1ccccc1)C1CC1)c1ccc2[nH]nc(-c3ccc(N4CCOCC4)c(F)c3)c2c1 (stereo not drawn) [Example A65, N-(cyclopropyl(phenyl)methyl)-3-(3-fluoro-4-morpholinophenyl)-1H-indazole-5-carboxamide]	100 to 500	> 500			
O=C(Nc1ccc2[nH]nc(-c3ccc(N4CCOCC4)cc3)c2c1)Nc1ccccc1Cl [Example A66, 1-(2-chlorophenyl)-3-(3-(4-morpholinophenyl)-1H-indazol-5-yl)urea]	> 500	> 500			
COc1ccc(NC(=O)Nc2ccc3[nH]nc(-c4ccc(OC5CCN(C)CC5)cc4)c3c2)c(C)c1 [Example A81, 1-(4-methoxy-2-methylphenyl)-3-(3-(4-((1-methylpiperidin-4-yl)oxy)phenyl)-1H-indazol-5-yl)urea]	100 to 500	100 to 500	100 to 500		
CN1CCN(C(=O)c2cccc(-c3n[nH]c4ccc(NC(=O)C(c5ccsc5)N5CCCC5)cc34)c2)CC1 (stereo not drawn) [Example A96, N-(3-(3-(4-Methylpiperazine-1-carbonyl)phenyl)-1H-indazol-5-yl)-2-(pyrrolidin-1-yl)-2-(thiophen-3-yl)acetamide]	> 500	> 500	> 500		
O=C(NC(c1ccccc1)C1CC1)c1ccc2[nH]nc(-c3ccc(N[C@H]4CC[C@H](O)CC4)cc3)c2c1 (stereo partly drawn) [Example A106, trans-N-(cyclopropyl(phenyl)methyl)-3-(4-(((1r,4r)-4-hydroxycyclohexyl)amino)phenyl)-1H-indazole-5-carboxamide]	< 100	< 100	< 100		
CC(C)(C)OC(=O)N1CCC(Oc2ccc(-c3n[nH]c4ccc(NC(=O)C(c5ccsc5)N5CCCC5)cc34)cc2)CC1 (stereo not drawn) [Example A115, tert-butyl 4-(4-(5-(2-(pyrrolidin-1-yl)-2-(thiophen-3-yl)acetamido)-1H-indazol-3-yl)phenoxy)piperidine-1-carboxylate]	100 to 500	> 500	> 500		
O=C(NCC1(N2CCCCC2)CCCCC1)c1ccc2[nH]nc(-c3ccc(N4CCOCC4)cc3)c2c1 [Example A446, 3-(4-morpholinophenyl)-N-((1-(piperidin-1-yl)cyclohexyl)methyl)-1H-indazole-5-carboxamide]	100 to 500	100 to 500			
CN1CCN(C2(CNC(=O)c3ccc4[nH]nc(-c5ccc(N6CCOCC6)cc5)c4c3)CCCCC2)CC1 [Example A448, N-((1-(4-methylpiperazin-1-yl)cyclohexyl)methyl)-3-(4-morpholinophenyl)-1H-indazole-5-carboxamide]	< 100	100 to 500			

The next lines start with the values.

IC50 (human TTK) [nM]	GI50 [1, 3] [nM]	GI50 [2, 4] [nM]	GI50 [1] [nM]	GI50 ([2]; Homo sapiens, PA-1) [nM]	Structure (SMILES)
< 100	100 to 500	100 to 500			O=C(NCC1(N2CCOCC2)CCCC1)c1ccc2[nH]nc(-c3ccc(O[C@@H]4CCC[C@H](O)C4)cc3)c2c1 (relative stereo) [Example A496, rel-3-(4-(((1R,3S)-3-hydroxycyclohexyl)oxy)phenyl)-N-((1-morpholinocyclopentyl)methyl)-1H-indazole-5-carboxamide]
< 100	100 to 500	100 to 500			O=C(NCC1(N2CCOCC2)CCCCC1)c1ccc2[nH]nc(-c3ccc(O[C@@H]4CCC[C@H](O)C4)cc3)c2c1 (relative stereo) [Example A497, cis-3-(4-(((1R,3S)-3-hydroxycyclohexyl)oxy)phenyl)-N-((1-morpholinocyclohexyl)methyl)-1H-indazole-5-carboxamide]
< 100	100 to 500	100 to 500			Cc1ccccc1CC1(NC(=O)c2ccc3[nH]nc(-c4ccc(OC5CCN(C)CC5)cc4)c3c2)CC1 [Example A127, N-(1-(2-methylbenzyl)cyclopropyl)-3-(4-((1-methylpiperidin-4-yl)oxy)phenyl)-1H-indazole-5-carboxamide]
< 100	> 500	> 500			O=C(NC(c1ccccc1)C1CC1)c1ccc2[nH]nc(-c3ccc(OCCn4ccnc4)cc3)c2c1 (stereo not drawn) [Example A165, 3-(4-(2-(1H-imidazol-1-yl)ethoxy)phenyl)-N-(cyclopropyl(phenyl)methyl)-1H-indazole-5-carboxamide]
< 100			100 to 500	100 to 500	O=C(NC(c1ccccc1)C(F)F)c1ccc2[nH]nc(-c3ccc(OC4CCN(C5COC5)CC4)cc3)c2c1 (stereo not drawn) [Example A226, N-(2,2-difluoro-1-phenylethyl)-3-(4-((1-(oxetan-3-yl)piperidin-4-yl)oxy)phenyl)-1H-indazole-5-carboxamide]
< 100			< 100	< 100	C[C@@H](O)CN1CCC(Oc2ccc(-c3n[nH]c4ccc(C(=O)N[C@H](c5ccccn5)C5CCCC5)cc34)cc2)CC1 [Example A230, N-((S)-cyclopentyl(pyridin-2-yl)methyl)-3-(4-((1-((R)-2-hydroxypropyl)piperidin-4-yl)oxy)phenyl)-1H-indazole-5-carboxamide]
< 100			< 100	< 100	CC(C)(O)CN1CCC(Oc2ccc(-c3n[nH]c4ccc(C(=O)N[C@H](c5ccccn5)C5CCCC5)cc34)cc2)CC1 [Example A231, (S)-N-(cyclopentyl(pyridin-2-yl)methyl)-3-(4-((1-(2-hydroxy-2-methylpropyl)piperidin-4-yl)oxy)phenyl)-1H-indazole-5-carboxamide]
< 100			< 100	< 100	CC(C)[C@H](NC(=O)c1ccc2[nH]nc(-c3ccc(OC4CCN(CCO)CC4)cc3)c2c1)c1ccccc1Cl [Example A232, (S)-N-(1-(2-chlorophenyl)-2-methylpropyl)-3-(4-((1-(2-hydroxyethyl)piperidin-4-yl)oxy)phenyl)-1H-indazole-5-carboxamide]
< 100			< 100	< 100	O=C(N[C@H](c1ccccn1)C1CCCC1)c1ccc2[nH]nc(-c3ccc(OC4CCN(CCO)CC4)cc3)c2c1 [Example A233, (S)-N-(cyclopentyl(pyridin-2-yl)methyl)-3-(4-((1-(2-hydroxyethyl)piperidin-4-yl)oxy)phenyl)-1H-indazole-5-carboxamide]
< 100			100 to 500	100 to 500	CC(C)CC(NC(=O)c1ccc2[nH]nc(-c3ccc(OC4CCN(C5COC5)CC4)cc3)c2c1)c1ccccc1 (stereo not drawn) [Example A290, N-(3-methyl-1-phenylbutyl)-3-(4-((1-(oxetan-3-yl)piperidin-4-yl)oxy)phenyl)-1H-indazole-5-carboxamide]
> 500	> 500				CN(C)C1(CNC(=O)c2ccc3[nH]nc(-c4ccc(N5CCOCC5)cc4)c3c2)CCCCC1 [Example A450, N-((1-(dimethylamino)cyclohexyl)methyl)-3-(4-morpholinophenyl)-1H-indazole-5-carboxamide]
100 to 500	> 500				C[C@@H]1CN(C2(CNC(=O)c3ccc4[nH]nc(-c5ccc(N6CCOCC6)cc5)c4c3)CCCCC2)C[C@H](C)O1 [Example A451, N((1-((2S,6R)-2,6-dimethylmorpholino)cyclohexyl)methyl)-3-(4-morpholinophenyl)-1H-indazole-5-carboxamide]
< 100	> 500				C[C@@H]1CN(C2(CNC(=O)c3ccc4[nH]nc(-c5ccc(OC6CCN(C)CC6)cc5)c4c3)CCCCC2)C[C@H](C)O1 [Example A452, N-((1-((2S,6R)-2,6-dimethylmorpholino)cyclohexyl)methyl)-3-(4-((1-methylpiperidin-4-yl)oxy)phenyl)-1H-indazole-5-carboxamide]
